Reference: patent US20110082157A1, “Piperidinylamino-Thieno [2,3-D] Pyrimidine Compounds” (priority 2004, published 2011)
Where a name gives a salt, the structure may show the parent alone. Read-outs that look alike come from different tables or passages of the source. Each block holds one molecule with its values, some of them ahead of it.

Legend:
Rat pK = settings: in vivo; for bioavailability: read-out: Rat pK: % F
5HT2B [1] = biological target: T1, 5HT2B (Homo sapiens, UniProt P41595); assay: Functional activity IC50 (5HT2B antagonist); type: cell-based
HLM T1/2 = settings: human, liver microsomes
D2S = D2S (Homo sapiens, UniProt P14416); assay: D2S binding (Ki)
hERG = hERG (Homo sapiens, UniProt Q12809); assay: hERG % inhibition at 1 uM
IP3 = assay: IC50 (IP3); type: cell-based
5HT2B [2] = biological target: T1, 5HT2B; assay: 5HT2B binding (Ki of Biological Data Table)
% Protein Binding = type: in vitro ADME
5HT1A = biological target: T2, 5HT1A (Homo sapiens, UniProt P08908); assay: 5HT1A binding (Ki)
T2 sequence (P08908 1-422): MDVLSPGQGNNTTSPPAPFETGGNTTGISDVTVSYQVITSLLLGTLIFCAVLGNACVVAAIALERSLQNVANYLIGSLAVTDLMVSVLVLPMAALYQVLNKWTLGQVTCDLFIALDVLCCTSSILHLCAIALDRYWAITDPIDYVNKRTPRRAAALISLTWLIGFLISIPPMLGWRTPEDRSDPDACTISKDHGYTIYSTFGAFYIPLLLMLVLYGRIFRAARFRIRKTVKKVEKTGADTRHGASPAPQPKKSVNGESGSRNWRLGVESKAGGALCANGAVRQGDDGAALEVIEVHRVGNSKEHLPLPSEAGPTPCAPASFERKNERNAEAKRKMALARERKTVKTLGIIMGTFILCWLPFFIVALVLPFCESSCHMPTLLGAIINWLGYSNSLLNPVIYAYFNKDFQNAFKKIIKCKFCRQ

[3] = po, read-out: Rat pK: T1/2 (po)
[4] = iv, read-out: Rat pK: T1/2 (iv)

Sequence of D2S (P14416 1-414 isoform P14416-2): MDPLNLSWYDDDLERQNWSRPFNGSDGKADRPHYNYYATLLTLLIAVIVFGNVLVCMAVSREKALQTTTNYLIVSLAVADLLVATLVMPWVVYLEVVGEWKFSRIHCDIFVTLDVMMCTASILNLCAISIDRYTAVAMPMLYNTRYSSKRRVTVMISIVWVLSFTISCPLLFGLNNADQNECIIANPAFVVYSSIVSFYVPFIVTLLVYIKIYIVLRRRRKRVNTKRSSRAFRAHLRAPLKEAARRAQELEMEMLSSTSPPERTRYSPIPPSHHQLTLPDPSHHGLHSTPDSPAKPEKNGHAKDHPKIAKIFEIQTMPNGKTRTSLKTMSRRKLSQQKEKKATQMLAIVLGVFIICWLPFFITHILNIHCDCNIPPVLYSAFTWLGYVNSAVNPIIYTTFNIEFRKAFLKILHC
Sequence of hERG (Q12809 whole entry): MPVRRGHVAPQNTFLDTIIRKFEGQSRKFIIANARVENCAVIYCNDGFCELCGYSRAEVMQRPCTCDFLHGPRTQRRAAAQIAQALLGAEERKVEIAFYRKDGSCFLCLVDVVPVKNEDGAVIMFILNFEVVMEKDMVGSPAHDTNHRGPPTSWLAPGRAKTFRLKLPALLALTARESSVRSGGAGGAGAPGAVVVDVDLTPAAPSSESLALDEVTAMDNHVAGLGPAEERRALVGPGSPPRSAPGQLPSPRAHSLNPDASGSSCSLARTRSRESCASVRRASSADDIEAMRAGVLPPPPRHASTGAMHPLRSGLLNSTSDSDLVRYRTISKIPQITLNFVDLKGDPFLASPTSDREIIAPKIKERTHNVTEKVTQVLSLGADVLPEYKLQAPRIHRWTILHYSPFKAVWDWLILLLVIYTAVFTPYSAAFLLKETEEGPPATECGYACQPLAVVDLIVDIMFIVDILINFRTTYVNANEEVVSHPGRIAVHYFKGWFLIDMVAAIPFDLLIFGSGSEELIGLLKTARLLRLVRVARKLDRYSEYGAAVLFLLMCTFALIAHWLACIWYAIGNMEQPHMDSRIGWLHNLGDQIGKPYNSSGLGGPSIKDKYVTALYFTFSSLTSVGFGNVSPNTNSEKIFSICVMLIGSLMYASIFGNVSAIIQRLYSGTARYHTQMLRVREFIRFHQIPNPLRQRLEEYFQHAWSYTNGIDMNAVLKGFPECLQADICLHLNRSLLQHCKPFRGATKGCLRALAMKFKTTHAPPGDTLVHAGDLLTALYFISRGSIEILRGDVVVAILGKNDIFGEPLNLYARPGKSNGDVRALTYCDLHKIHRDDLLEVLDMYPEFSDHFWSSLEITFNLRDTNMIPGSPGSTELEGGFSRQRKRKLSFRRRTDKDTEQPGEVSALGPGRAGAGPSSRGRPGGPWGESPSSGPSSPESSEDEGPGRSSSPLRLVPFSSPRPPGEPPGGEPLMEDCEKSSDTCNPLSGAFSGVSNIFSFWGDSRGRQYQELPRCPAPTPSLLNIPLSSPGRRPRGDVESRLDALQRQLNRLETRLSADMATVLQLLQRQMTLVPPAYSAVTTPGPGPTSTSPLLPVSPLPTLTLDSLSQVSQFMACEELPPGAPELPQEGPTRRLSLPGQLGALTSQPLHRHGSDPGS
T1 sequence (P41595 whole entry, species assumed): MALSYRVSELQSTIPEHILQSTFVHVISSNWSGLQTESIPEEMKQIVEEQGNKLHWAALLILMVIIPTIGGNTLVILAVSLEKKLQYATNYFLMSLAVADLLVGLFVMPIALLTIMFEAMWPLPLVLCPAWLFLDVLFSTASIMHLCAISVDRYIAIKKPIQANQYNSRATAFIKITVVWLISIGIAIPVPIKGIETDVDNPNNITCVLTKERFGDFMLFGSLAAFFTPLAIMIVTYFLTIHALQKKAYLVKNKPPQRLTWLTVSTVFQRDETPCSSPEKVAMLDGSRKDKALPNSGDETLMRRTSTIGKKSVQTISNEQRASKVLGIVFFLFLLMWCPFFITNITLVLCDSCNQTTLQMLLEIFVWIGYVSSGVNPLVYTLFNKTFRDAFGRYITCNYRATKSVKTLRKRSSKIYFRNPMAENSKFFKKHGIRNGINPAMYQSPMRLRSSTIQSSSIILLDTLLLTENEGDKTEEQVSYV

Ki (D2S; NA: Not Active): 0.24 µM | IC50 (5HT2B [1]): 0.1 µM | half-life (HLM T1/2): 4.3 min | IC50 (IP3): 0.0225 µM
Compound: Fc1cccc(CN2CCC(Nc3ncnc4sc5c(c34)CCCC5)CC2)c1 [Example B3, N-(1-(3-fluorobenzyl)piperidin-4-yl)5,6,7,8-tetrahydro-bcnzo[4,5]thieno[2,3-d]pyrimidin-4-amine]
hERG (% Inhibition at 1 uM) (hERG): 58.5%

% at 10 nM (5HT2B) (5HT2B [2]): 38% | % at 100 nM (5HT2B) (5HT2B [2]): 91% | % at 1000 nM (5HT2B) (5HT2B [2]): 101% | half-life (HLM T1/2): < 15 min
Compound: c1ccc(CN2CCC(Nc3ncnc4scc(-c5ccccc5)c34)CC2)cc1 [Example B6, N-(1-benzylpiperidin-4-yl)-5-phenylthieno [2,3-d]pyrimidin-4-amine]

% at 10 nM (5HT2B) (5HT2B [2]): 3% | % at 100 nM (5HT2B) (5HT2B [2]): 4% | % at 1000 nM (5HT2B) (5HT2B [2]): 30%
Compound: Oc1cc(C(F)(F)F)cnc1N1CCC(Nc2ncnc3scc(-c4ccccc4)c23)CC1 [Example B7, 2-(4-(5-phenylthieno [2,3-d]pyrimidin-4-ylamino)piperidin-1-yl)-5-(trifluoromethyl) pyridin-3-ol]

half-life (Rat pK; [4]): 30 min | bioavailability (Rat pK; po): 4% | half-life (Rat pK; [3]): 30 min | IC50 (5HT2B [1]): 5.3 µM | half-life (HLM T1/2): < 15 min
Compound: CC(C)Cc1cc2c(NC3CCN(C(C)c4cccc(F)c4)CC3)ncnc2s1 (stereo not drawn) [Example B14, N-(1-(1-(3-fluorophenyl)ethyl)piperidin-4-yl)-6-isobutylthieno[2,3-d] pyrimidin-4-amine, dihydrochloride]
hERG (% Inhibition at 1 uM) (hERG): 76.1%

IC50 (5HT2B [1]): 1.3 µM | half-life (HLM T1/2): < 15 min
Compound: CC(c1cc(F)cc(F)c1)N1CCC(Nc2ncnc3sc4c(c23)CCCC4)CC1 (stereo not drawn) [Example B17, N-(1-(1-(3,5-difluorophenyl)ethyl)piperidin-4-yl)5,6,7,8-tetrahydro-benzo [4,5]thieno[2,3-d] pyrimidin-4-amine, dihydrochloride]

half-life (Rat pK; [4]): 12 min | bioavailability (Rat pK; po): 3% | half-life (Rat pK; [3]): 24 min | fraction unbound (% Protein Binding): 0.062 | IC50 (5HT2B [1]): 5.7 µM | half-life (HLM T1/2): 7 min
Compound: CC(C)Cc1cc2c(NC3CCN(C(C)c4cc(F)cc(F)c4)CC3)ncnc2s1 (stereo not drawn) [Example B18, N-(1-(1-(3,5-difluorophenyl)ethyl)piperidin-4-yl)-6-isobutylthieno[2,3-d]pyrimidin-4-amine, dihydrochloride]
hERG (% Inhibition at 1 uM) (hERG): 31%

half-life (HLM T1/2): < 15 min
Compound: CC(C)Cc1cc2c(NC3CCN(C(C)c4c(F)cccc4F)CC3)ncnc2s1 (stereo not drawn) [Example B20, N-(1-(1-(2,6-difluorophenyl)ethyl)piperidin-4-yl)-6-isobutylthieno[2,3-d] pyrimidin-4-amine, dihydrochloride]
hERG (% Inhibition at 1 uM) (hERG): hERG (% Inhibition at 1 uM): 73.4

IC50 (5HT2B [1]): 0.45 µM | IC50 (IP3): 0.00153 µM
Compound: CC(C)c1cc2c(NC3CCN(Cc4cc(F)cc(F)c4)CC3)ncnc2s1 [Example B32, N-(1-(3,5-difluorobenzyl)piperidin-4-yl)-6-isopropylthieno [2,3-d] pyrimidin-4-amine, monomaleate]

Further lines, the molecule ahead of its results:

Compound: c1ccc(CN2CCC(Nc3ncnc4sc5c(c34)CCCC5)CC2)cc1 [Example B1, N-(1-benzylpiperidin-4-yl)5,6,7,8-tetrahydro-benzo[4,5]thieno[2,3-d]pyrimidin-4-amine]
half-life (Rat pK; [3]): 60 min | IC50 (5HT2B [1]): 0.11 µM | half-life (HLM T1/2): < 15 min

Compound: CN1CCC(N(C)c2ncnc3sc4c(c23)CCCC4)CC1 [Example B5, N-methyl-N-(1-methylpiperidin-4-yl)5,6,7,8-tetrahydro-benzo[4,5] thieno[2,3-d]pyrimidin-4-amine]
% at 10 nM (5HT2B) (5HT2B [2]): -2% | % at 100 nM (5HT2B) (5HT2B [2]): 11% | % at 1000 nM (5HT2B) (5HT2B [2]): 67%

Compound: c1ccc(CN2CCC(Nc3ncnc4sccc34)CC2)cc1 [Example B8, N-(1-benzylpiperidin-4-yl)thieno [2,3-d]pyrimidin-4-amine]
% at 10 nM (5HT2B) (5HT2B [2]): 13% | % at 100 nM (5HT2B) (5HT2B [2]): 62% | % at 1000 nM (5HT2B) (5HT2B [2]): 96%

Compound: Cc1csc2ncnc(NC3CCN(Cc4ccccc4)CC3)c12 [Example B9, N-(1-benzylpiperidin-4-yl)-5-methylthieno [2,3-d]pyrimidin-4-amine]
% at 10 nM (5HT2B) (5HT2B [2]): 15% | % at 100 nM (5HT2B) (5HT2B [2]): 62% | % at 1000 nM (5HT2B) (5HT2B [2]): 97%

Compound: N#Cc1cccc(CN2CCC(Nc3ncnc4sc5c(c34)CCCC5)CC2)c1 [Example B11, 3-((4-(5,6,7,8-tetrahydro-benzo[4,5]thieno[2,3-d]pyrimidin-4-ylamino)piperidin-1-yl)methyl)benzonitrile, dihydrochloride]
hERG (% Inhibition at 1 uM) (hERG): hERG (% Inhibition at 1 uM): 44.9 | % at 1 nM (5HT2B) (5HT2B [2]; 1 nM): 35% | % at 10 nM (5HT2B) (5HT2B [2]): 82% | % at 100 nM (5HT2B) (5HT2B [2]): 101% | half-life (HLM T1/2): < 15 min

Compound: CC(c1cccc(F)c1)N1CCC(Nc2ncnc3sccc23)CC1 (stereo not drawn) [Example B12, N-(1-(1-(3-fluorophenyl)ethyl)piperidin-4-yl) thieno[2,3-d]pyrimidin-4-amine, dihydrochloride]
Ki (D2S; NA: Not Active): 0.25 µM | hERG (% Inhibition at 1 uM) (hERG): hERG (% Inhibition at 1 uM): 58.5 | half-life (HLM T1/2): 11 min

Compound: Fc1cc(F)cc(CN2CCC(Nc3ncnc4sccc34)CC2)c1 [Example B30, N-(1-(3,5-difluorobenzyl)piperidin-4-yl) thieno[2,3-d]pyrimidin-4-amine, dihydrochloride]
bioavailability (Rat pK; po): 17% | half-life (Rat pK; [3]): 48 min | hERG (% Inhibition at 1 uM) (hERG): 62% | IC50 (5HT2B [1]): 1.6 µM | half-life (HLM T1/2): 19 min

Compound: CC(C)c1cc2c(NC3CCN(Cc4cc(F)cc(F)c4)CC3)ncnc2s1 [Example B31, N-(1-(3,5-difluorobenzyl)piperidin-4-yl)-6-isopropylthieno [2,3-d] pyrimidin-4-amine, dihydrochloride]
bioavailability (Rat pK; po): 10% | half-life (Rat pK; [3]): 30 min | Ki (D2S; NA: Not Active): 0.23 µM | IC50 (5HT2B [1]): 0.83 µM | half-life (HLM T1/2): 8 min

Compound: Fc1cc(F)cc(CN2CCC(Nc3ncnc4sc(Cl)cc34)CC2)c1 [Example B33, N-(1-(3,5-difluorobenzyl)piperidin-4-yl)-6-chlorothieno[2,3-d]pyrimidin-4-amine, dihydrochloride]
hERG (% Inhibition at 1 uM) (hERG): hERG (% Inhibition at 1 uM): 22.8 | half-life (HLM T1/2): 13 min

Compound: Cc1sc2ncnc(NC3CCN(CC4CCCCC4)CC3)c2c1C [Example B35, N-(1-(cyclohexylmethyl)piperidin-4-yl)-5,6-dimethylthieno[2,3-d]pyrimidin-4-amine, dihydrochloride]
hERG (% Inhibition at 1 uM) (hERG): hERG (% Inhibition at 1 uM): 91.7 | half-life (HLM T1/2): < 15 min

Compound: Fc1ccccc1CN1CCC(Nc2ncnc3sc(Cl)cc23)CC1 [Example B46, N-(1-(2-fluorobenzyl)piperidin-4-yl)-6-chlorothieno[2,3-d]pyrimidin-4-amine, monomaleate]
hERG (% Inhibition at 1 uM) (hERG): hERG (% Inhibition at 1 uM): 39.5 | half-life (HLM T1/2): < 15 min

Compound: Clc1cc2c(NC3CCN(Cc4cccnc4)CC3)ncnc2s1 [Example B47, 6-chloro-N-(1-((pyridin-3-yl)methyl)piperidin-4-yl)thieno [2,3-d]pyrimidin-4-amine, monomaleate]
Ki (D2S): > 10 µM | half-life (HLM T1/2): 12 min

Compound: Fc1ccc(-c2c(Cl)sc3ncnc(NC4CCN(Cc5cc(F)cc(F)c5)CC4)c23)cc1 [Example B48, N-(1-(3,5-difluorobenzyl)piperidin-4-yl)-6-chloro-5-(4-fluorophenyl) thieno[2,3-d]pyrimidin-4-amine, monomaleate]
Ki (D2S): 1.1 µM | Ki (5HT1A): not Active | half-life (HLM T1/2): < 15 min
